From patent US6503943B1, “Platinum complex, its preparation and therapeutic application” (priority 1998, dated 2003)
Several values for one entry are separate records, joined by “and”; a condition that tells them apart may be missing. Equal entries are not always repeated.

Tests used:
Gardner lymphosarcoma = experiment: Antitumor effect at animals with solid form of Gardner lymphosarcoma (Example 8); format: in vivo, mice C3H; details: 5th day, tumors weighed 14th day
[1] = system: ascitic form of Ehrlich tumor (ATE); experiment: Antitumor effect at animals with ascitic form of Ehrlich tumor (ATE) (Example 11);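 as to all read-outs here: half of each dose group killed on day 10, tumor mass taken as animal mass lost on ascites aspiration, ascitocrit by microhematocrit centrifuge, rest followed daily for survival versus reference group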; details: for Total ascitocrit (%) of control / Total ascitocrit (mass of cell fraction of a tumor), Arithm. mean / Tumor mass (%) of control / Tumor mass, Arithm. mean: dissection 10th day; for Evaluation of antitumor effect (survival time versus control), in words: p.o.×9, Platidiam 8 and 4 mg/kg s.c.×1, Tab. 8.1
Protocol: After termination of application, one half of animals in each dosage group was destroyed at 10th day after inoculation in ether narcosis, the ascits were sucked out after laparotomy and the mass of a tumor at each of the animals was determined from the difference of mass before and after sucking out the ascit. Ascitocrit in ascitic liquor of single animals was determined on microhematocrit centrifuge in heparinized capillary tubes of 75 mm length. The value of “total ascitocrit”corresponding to a mass of cells in ascitic liquor has been determined from percentage of ascitocrit and mass of the tumor. Remaining animals were left for monitoring the survival time. In these animals, the survival time was monitored on daily basis. The dependence of the survival time value on the applied dose was evaluated in comparison with the reference group.
The single estimated time points as biological responses were evaluated by a test of equivalence of two mean values (Student's t-test). Geometric mean was calculated from single values of survival time, arithmetic means were calculated from single values of tumor mass and total ascitocrit. Difference between mean values was evaluated by a test of equivalence of two mean values (Student's t-test) under presumption of normal probability distribution of mass values as well as of total ascitocrit values and of logarithmic/normal distribution of temporal values, all under presumption of possible unknown disseminations. Those diferences in mean values, whose values of a test criterium exceeded the critical value at the 5% and 1% significance level were evaluated as statistically significant and highly statistically significant, respectively.
The optimum dosage has been calculated from values of survival time according to the proportional risk model of Cox (Carter et al., 1982). Parameters of Weinbull distribution and logarithmic transformation of introductory data were used for estimation of a basic and modified survival function from experimental data.

leucaemia L1210 [2] = experiment: Antitumor effect at animals with leucaemia L1210, intermitent administration 3x (Example 5); format: in vivo, mice DBA2; details: 1st, 5th and 9th day
[3] = system: ascitic form of Ehrlich tumor (ATE); experiment: Antitumor effect at animals with ascitic form of Ehrlich tumor (ATE) (Example 10); format: in vivo, mice ICR; details: for Survival (in % of control) / Survival time, Geom. mean / Tumor mass (%) of control / Tumor mass, Arithm. mean: 1st day; for Tumor mass (%) of control / Tumor mass, Arithm. mean: dissection 10th day
leucaemia L1210 [4] = experiment: Antitumor effect at animals with leucaemia L1210, continual regimen (Example 7); format: in vivo, mice DBA2
leucaemia L1210 [5] = experiment: Antitumor effect at animals with leucaemia L1210, single administration (Example 4); format: in vivo, mice DBA2; details: for Survival (in % of control) / Survival time, Geom. mean: 1st day
leucaemia L1210 [6] = experiment: Antitumor effect at animals with leucaemia L1210, continual versus intermitent regimen (Example 6); format: in vivo, mice DBA2; details: for Survival (in % of control) / Survival time, Geom. mean: 1st day
[7] = system: mammal adenocarcinoma MC2111; experiment: Antitumor effect at animals with solid form of mammal adenocarcinoma MC2111 (Example 9); format: in vivo, mice DBA1; details: for Tumor mass (%) of control / Tumor mass, Arithm. mean: tumor size 14th day, mass from regression
[8] = 3 mg/kg/day p.o. 9x, 1th-9th day
[9] = 6 mg/kg/day p.o. 9x, 1th-9th day
[10] = 12 mg/kg/day p.o. 9x, 1th-9th day
[11] = 3 mg/kg/day p.o. 9x, 5th-13 day
[12] = 6 mg/kg/day p.o. 9x, 5th-13 day
[13] = 12 mg/kg/day p.o. 9x, 5th-13 day

Structure (SMILES): N.N.[Cl][Pt][Cl] [Platidiam, cis-diammin-dichloroplatinum(II) complex]
- Tumor mass (%) of control (Gardner lymphosarcoma; 2 mg/kg s.c. 1x): 83%
- Tumor mass, Arithm. mean (Gardner lymphosarcoma; 2 mg/kg s.c. 1x): 5.19 g
- Tumor mass (%) of control (Gardner lymphosarcoma; 4 mg/kg s.c. 1x): 59%
- Tumor mass, Arithm. mean (Gardner lymphosarcoma; 4 mg/kg s.c. 1x): 3.68 g
- Tumor mass (%) of control (Gardner lymphosarcoma; 8 mg/kg s.c. 1x): 26%
- Tumor mass, Arithm. mean (Gardner lymphosarcoma; 8 mg/kg s.c. 1x): 1.64 g
- Survival (in % of control) ([1]; 2 mg/kg s.c. 1x, 1st day): 128%
- Survival time, Geom. mean ([1]; 2 mg/kg s.c. 1x, 1st day): 11.4 days
- Total ascitocrit (%) of control ([1]; 2 mg/kg s.c. 1x, 1st day): 115%
- Total ascitocrit (mass of cell fraction of a tumor), Arithm. mean ([1]; 2 mg/kg s.c. 1x, 1st day): 0.79 g
- Tumor mass (%) of control ([1]; 2 mg/kg s.c. 1x, 1st day): 72%
- Tumor mass, Arithm. mean ([1]; 2 mg/kg s.c. 1x, 1st day): 2.83 g
- Survival (in % of control) ([1]; 4 mg/kg s.c. 1x, 1st day): 197%
- Survival time, Geom. mean ([1]; 4 mg/kg s.c. 1x, 1st day): 17.5 days
- Total ascitocrit (%) of control ([1]; 4 mg/kg s.c. 1x, 1st day): 116%
- Total ascitocrit (mass of cell fraction of a tumor), Arithm. mean ([1]; 4 mg/kg s.c. 1x, 1st day): 0.80 g
- Tumor mass (%) of control ([1]; 4 mg/kg s.c. 1x, 1st day): 90%
- Tumor mass, Arithm. mean ([1]; 4 mg/kg s.c. 1x, 1st day): 3.53 g
- Survival (in % of control) ([1]; 8 mg/kg s.c. 1x, 1st day): 208%
- Survival time, Geom. mean ([1]; 8 mg/kg s.c. 1x, 1st day): 18.5 days
- Total ascitocrit (%) of control ([1]; 8 mg/kg s.c. 1x, 1st day): 100%
- Total ascitocrit (mass of cell fraction of a tumor), Arithm. mean ([1]; 8 mg/kg s.c. 1x, 1st day): 0.68 g
- Tumor mass (%) of control ([1]; 8 mg/kg s.c. 1x, 1st day): 60%
- Tumor mass, Arithm. mean ([1]; 8 mg/kg s.c. 1x, 1st day): 2.36 g
- Evaluation of antitumor effect (survival time versus control), in words [1]: antitumor effective
- Survival (in % of control) (leucaemia L1210 [2]; 1 mg/kg/day s.c. 3x): 178%
- Survival time, Geom. mean (leucaemia L1210 [2]; 1 mg/kg/day s.c. 3x): 28.0 days
- Survival (in % of control) (leucaemia L1210 [2]; 2 mg/kg/day s.c. 3x): 168%
- Survival time, Geom. mean (leucaemia L1210 [2]; 2 mg/kg/day s.c. 3x): 26.3 days
- Survival (in % of control) (leucaemia L1210 [2]; 4 mg/kg/day s.c. 3x): 106%
- Survival time, Geom. mean (leucaemia L1210 [2]; 4 mg/kg/day s.c. 3x): 16.6 days
- Survival (in % of control) ([3]; 2 mg/kg s.c. 1x): 120%
- Survival time, Geom. mean ([3]; 2 mg/kg s.c. 1x): 13.8 days
- Tumor mass (%) of control ([3]; 2 mg/kg s.c. 1x): 115%
- Tumor mass, Arithm. mean ([3]; 2 mg/kg s.c. 1x): 3.06 g
- Survival (in % of control) ([3]; 4 mg/kg s.c. 1x): 190%
- Survival time, Geom. mean ([3]; 4 mg/kg s.c. 1x): 21.8 days
- Tumor mass (%) of control ([3]; 4 mg/kg s.c. 1x): 101%
- Tumor mass, Arithm. mean ([3]; 4 mg/kg s.c. 1x): 2.68 g
- Survival (in % of control) ([3]; 8 mg/kg s.c. 1x): 184%
- Survival time, Geom. mean ([3]; 8 mg/kg s.c. 1x): 21.0 days
- Tumor mass (%) of control ([3]; 8 mg/kg s.c. 1x): 82%
- Tumor mass, Arithm. mean ([3]; 8 mg/kg s.c. 1x): 2.16 g
- Significance of mean survival time increase in comparison with untreated control (p≦0.01), in words ([3]; Tab. 7-2): atatistically highly significant
- LTS - Long Term Survivors (amount of surviving animals in a group) (leucaemia L1210 [4]; 4 mg/kg s.c. 1x, 1st day): 5/10
- Survival (in % of control) (leucaemia L1210 [4]; 4 mg/kg s.c. 1x, 1st day): >223%
- Survival time, Geom. mean (leucaemia L1210 [4]; 4 mg/kg s.c. 1x, 1st day): 50.2 days
- Increase of survival time value in comparison with the control group (leucaemia L1210 [4]; 4 mg/kg s.c.×1): 123%
- Survival (in % of control) (leucaemia L1210 [5]; 2.5 mg/kg s.c. 1x): 112%
- Survival time, Geom. mean (leucaemia L1210 [5]; 2.5 mg/kg s.c. 1x): 14.2 days
- Survival (in % of control) (leucaemia L1210 [5]; 5 mg/kg s.c. 1x): >132%
- Survival time, Geom. mean (leucaemia L1210 [5]; 5 mg/kg s.c. 1x): 16.7 days
- Increase of mean value of survival time against the control (leucaemia L1210 [5]; 5 mg/kg s.c., single, not statistically significant): 32%
- Survival (in % of control) (leucaemia L1210 [5]; 10 mg/kg s.c. 1x): 48%
- Survival time, Geom. mean (leucaemia L1210 [5]; 10 mg/kg s.c. 1x): 6.1 days
- Survival (in % of control) (leucaemia L1210 [6]; 2 mg/kg s.c. 1x): 155%
- Survival time, Geom. mean (leucaemia L1210 [6]; 2 mg/kg s.c. 1x): 17.9 days
- Survival (in % of control) (leucaemia L1210 [6]; 4 mg/kg s.c. 1x): 174%
- Survival time, Geom. mean (leucaemia L1210 [6]; 4 mg/kg s.c. 1x): 20.2 days
- Survival (in % of control) (leucaemia L1210 [6]; 8 mg/kg s.c. 1x): 204%
- Survival time, Geom. mean (leucaemia L1210 [6]; 8 mg/kg s.c. 1x): 23.7 days
- Evaluation of antitumor effect (survival time versus control), in words (leucaemia L1210 [6]; LA-12 6 mg/kg p.o.×9, Platidiam 8 and 4 mg/kg s.c.×1, LA-2 any of the dosage groups): antitumor effective
- Tumor mass (%) of control ([7]; 4 mg/kg s.c. 1x, 5th day): 76%
- Tumor mass, Arithm. mean ([7]; 4 mg/kg s.c. 1x, 5th day): 3.53 g
- Tumor mass (%) of control ([7]; 8 mg/kg s.c. 1x, 5th day): 69%
- Tumor mass, Arithm. mean ([7]; 8 mg/kg s.c. 1x, 5th day): 3.20 g
- LTS - Long Term Survivors; the amount of animals destroyed at 120th day ([7]; mouse, in vivo): 1/10
- Survival (in % of control) ([7]; mouse, in vivo): >162 2) % and >158 1) %
- Survival time, Geom. mean ([7]; mouse, in vivo): 35.1 days and 34.3 days
- Evaluation of antitumor effect, in words ([7]; p.o.×9 12, 6, 3 mg/kg/day, Platidiam 8 and 4 mg/kg s.c. once): antitumor effective

Structure (SMILES): CC(=O)[O][Pt]([NH2])([Cl])([Cl])([NH]C12CC3CC(C)(CC(C)(C3)C1)C2)[O]C(C)=O [LA-15, af-bis(Acetato)-b-(1amino-3.5-dimethyladamantane)-c-ammin-de-dichloroplatinum (IV) Complex]
- Survival (in % of control) [1, 8]: 99%
- Survival time, Geom. mean [1, 8]: 8.8 days
- Total ascitocrit (%) of control [1, 8]: 123%
- Total ascitocrit (mass of cell fraction of a tumor), Arithm. mean [1, 8]: 0.84 g
- Tumor mass (%) of control [1, 8]: 89%
- Tumor mass, Arithm. mean [1, 8]: 3.51 g
- Survival (in % of control) [1, 9]: 108%
- Survival time, Geom. mean [1, 9]: 9.6 days
- Total ascitocrit (%) of control [1, 9]: 59%
- Total ascitocrit (mass of cell fraction of a tumor), Arithm. mean [1, 9]: 0.40 g
- Tumor mass (%) of control [1, 9]: 53%
- Tumor mass, Arithm. mean [1, 9]: 2.08 g
- Mean value of the mass of cell fraction of the tumor (total ascitocrit) versus control, in words ([1]; 6 mg/kg/day p.o.×9): statistically significant lower
- Survival (in % of control) [1, 10]: 97%
- Survival time, Geom. mean [1, 10]: 8.6 days
- Total ascitocrit (%) of control [1, 10]: 120%
- Total ascitocrit (mass of cell fraction of a tumor), Arithm. mean [1, 10]: 0.82 g
- Tumor mass (%) of control [1, 10]: 96%
- Tumor mass, Arithm. mean [1, 10]: 3.77 g
- Evaluation of antitumor effect (survival time versus control), in words [1]: didnot increase the survival time statistically significant
- Survival (in % of control) (leucaemia L1210 [4]; [8]): 180%
- Survival time, Geom. mean (leucaemia L1210 [4]; [8]): 40.5 days
- Survival (in % of control) (leucaemia L1210 [4]; [9]): 217%
- Survival time, Geom. mean (leucaemia L1210 [4]; [9]): 48.8 days
- Survival (in % of control) (leucaemia L1210 [4]; [10]): 130%
- Survival time, Geom. mean (leucaemia L1210 [4]; [10]): 29.3 days
- Evaluation of antitumor effect (survival time versus control), in words (leucaemia L1210 [4]; in the dosages used, p.o.×9): antitumor effective
- Increase of survival time value in comparison with the control group (leucaemia L1210 [4]; in the dosages used, p.o.×9): 130%
- Survival (in % of control) [7, 11]: 117%
- Survival time, Geom. mean [7, 11]: 25.4 days
- Tumor mass (%) of control [7, 11]: 90%
- Tumor mass, Arithm. mean [7, 11]: 4.19 g
- Survival (in % of control) [7, 12]: 127%
- Survival time, Geom. mean [7, 12]: 27.6 days
- Tumor mass (%) of control [7, 12]: 85%
- Tumor mass, Arithm. mean [7, 12]: 3.95 g
- Survival (in % of control) [7, 13]: 118%
- Survival time, Geom. mean [7, 13]: 25.5 days
- Tumor mass (%) of control [7, 13]: 80%
- Tumor mass, Arithm. mean [7, 13]: 3.74 g
